Measured values: patent US20120323009A1, “PRODUCTION METHOD OF REDUCED PYRROLOQUINOLINE QUINONE” (MITSUBISHI GAS CHEMICAL COMPANY, INC., priority 2010, published 2012)

Experiments:
[1] = Storage test of reduced PQQ (oxidation to oxidized PQQ); type: physicochemical
Procedure: In Examples and Comparative Examples, the UV measurements were performed on a HITACHI U-2000 Spectrophotometer.
In 500 g of water, […] of pyrroloquinoline quinone disodium was dissolved to a concentration of 0.01 mol/L. In 100 g of water, 3.51 g of L-ascorbic acid was dissolved to a concentration of 0.2 mol/L.
20 g of the pyrroloquinoline quinone disodium solution mentioned above having a concentration of 0.01 mol/L (pH 3.5) was mixed with 20 g of an L-ascorbic acid solution having a concentration of 0.2 mol/L at room temperature. The molar ratio of L-ascorbic acid is 20 with respect to pyrroloquinoline quinone. The pH of the solution was 2 as measured with a pH test strip. The mixed solution was allowed to react at room temperature overnight (pH 2). After the reaction, a solid of the reduced form was precipitated. Under this condition, it is believed that at least 15-fold moles of L-ascorbic acid is present, even allowing for the amounts consumed in the reduction reaction and in air oxidization.
The solid of the reduced form obtained in Example 6 was separated through centrifugation. The supernatant was removed, and the solid was washed with water. This process removed L-ascorbic acid. An aqueous sodium hydroxide solution was added thereto to adjust the value of pH to 7. All the reduced form was converted to the oxidized form in 30 minutes.
1 g of a pyrroloquinoline quinone disodium solution having a concentration of 0.01 mol/L (pH 3.5) was mixed with 1 g of an L-ascorbic acid solution having a concentration of 0.014 mol/L. When 1 g of this mixed solution was transferred to a 15-ml container and brought into contact with air, the solution included 14% of oxidized PQQ (pH 3). After this oxidized PQQ-containing reduced PQQ was left at 30° C. for one week, 18% of oxidized PQQ was included.

[2] = Non-patent document 3; cited from earlier work

time in which all the reduced form was converted to the oxidized form ([1]; Comparative Example 3: solid washed with water, L-ascorbic acid removed, pH adjusted to 7 with aqueous sodium hydroxide): 30 min | state of the reduced form after storage ([1]; Example 7: aqueous reaction solution, pH 2, at least 15-fold moles of L-ascorbic acid present, stored at room temperature for one week): maintained in the reduced state | oxidized PQQ included ([1]; Example 8: 0.01 mol/L PQQ disodium + 0.014 mol/L L-ascorbic acid mixed solution, pH 3, brought into contact with air, before storage): 14% | oxidized PQQ included ([1]; Example 8: same solution after being left at 30° C. for one week): 18%
Compound: O=C(O)c1cc(C(=O)O)c2c(n1)c(O)c(O)c1cc(C(=O)O)[nH]c12 [reduced PQQ, reduced pyrroloquinoline quinone]
antioxidative activity compared with ascorbic acid [2]: greater antioxidative activity than that exhibited by ascorbic acid | antioxidative activity compared with conventional PQQ [2]: extremely higher antioxidative activity than that exhibited by the conventional PQQ
